The results in this text go back to patent US20240059915A1, “COLOR-CHANGE INK” (Société BIC, priority 2020, published 2024).

The nature of the data set: Solubility of Acid Blue 93 in several solvents. The format is physicochemical. Here is the method:
The solubility of Acid Blue 93, a water-soluble pH-sensitive triarylmethane dye, was determined by stirring 5 wt.-%0 of the dye in 95 wt.-%0 of the solvent. The following results reported in below Table 1 were obtained:
This is surprising since these water-soluble dyes are commonly known to be insoluble in organic solvents, as also seen in the above comparative solvents. In these comparative solvents, it can be observed that the solvent is not colored and that the dye remains in the form of particles and precipitates at the bottom of the recipient.

The structures appear in SMILES notation.

Consider `O=S(=O)([O-])c1ccc(N=C2C=CC(=C(c3ccc(Nc4ccc(S(=O)(=O)[O-])cc4)cc3)c3ccc(Nc4ccc(S(=O)(=O)O)cc4)cc3)C=C2)cc1.[Na+].[Na+]` [Acid Blue 93], for which the Solubility entry (5 wt.-% dye stirred in 95 wt.-% 1,2-propanediol) is reported as “Soluble”; the Solubility entry (5 wt.-% dye stirred in 95 wt.-% 1-phenoxy-2-propanol) is “Insoluble”; the Solubility entry (5 wt.-% dye stirred in 95 wt.-% 1-phenoxy-ethanol) was “Insoluble”; the Solubility entry (5 wt.-% dye stirred in 95 wt.-% Carbitol (CAS 111-90-0)) is “Insoluble”; the Solubility result (5 wt.-% dye stirred in 95 wt.-% benzylic alcohol) is on record as “Insoluble”; the Solubility entry (5 wt.-% dye stirred in 95 wt.-% cyrene) is “Insoluble”. The Solubility entry is, setting by setting: (5 wt.-% dye stirred in 95 wt.-% diethyleneglycol) “Soluble”; (5 wt.-% dye stirred in 95 wt.-% dimethylsulfoxide) “Soluble”; (5 wt.-% dye stirred in 95 wt.-% dipropylene glycol) “Insoluble”; (5 wt.-% dye stirred in 95 wt.-% monoethyleneglycol) “Soluble”.
